Results published in patent US20110262544A1, “OPHTHALMIC ADMINISTRATION OF A COMPOSITION INCLUDING BRIMONIDINE AS A MIST” (PHARMALIGHT INC., priority 2008, published 2011).

Tests used:
[1] = test system: albino New Zealand white rabbits; conditions: conclusion from retinal blood flow in rabbits
Method: Retinal blood flow rate in the major temporal vein in the right eye of albino New Zealand white rabbits is measured at pre-administration baseline, as well as post-administration of Alphagan® P as drops, post-administration of a composition comprising brimonidine and a penetration enhancer as a mist, and post-administration of a composition in accordance with the principles of the present invention comprising brimonidine or a salt thereof and being devoid of a penetration enhancer as a mist. […] In this instrument, the measuring laser beam is locked onto the target blood vessel during eye movements through an eye-tracking feedback and control system. Doppler-shifted laser light scattered from a retinal vessel is analyzed to determine centerline blood velocity.
Venous blood flow, which is known to be directly correlated to arterial blood flow, is measured, since retinal veins have a larger diameter than retinal arteries, facilitating better locking of the measuring laser beams onto the target vessel. […]
The beam from a red 675-nm diode laser is used for velocity measurement, emitted from a fundus camera-like measuring head. The Doppler-shifted light scattered from the flowing blood cells in the target vessel is detected simultaneously in two directions, separated by a fixed angle. […]
Following administration of the composition, the blood flow velocity in the same veins is measured.

Glaucoma patients = conditions: normal tension glaucoma patients; cited from earlier work

Compound	efficacy compared between ways of administration or compositions [1]	maintenance of retinal blood flow homeostasis with changes in posture (Glaucoma patients)
Brc1c(NC2=NCCN2)ccc2nccnc12 [brimonidine, 5-Bromo-N-(4,5-dihydro-1H-imidazol-2-yl) quinoxalin-6-amine]	as effective as administration in the form of eye-drops	maintained retinal blood flow homeostasis
CC(C)OC(=O)CCC/C=C\C[C@@H]1[C@@H](CC[C@@H](O)CCc2ccccc2)[C@H](O)C[C@@H]1O [latanoprost]		not
